Here are results for 14 molecules from publication PMC10040144 (ACS infectious diseases, 2022).

One data set deals with PBP1a (Escherichia coli, UniProt P02918). Type of data set: cell-based, Escherichia coli MG1655.
Another data set concerns the target PBP1b (Escherichia coli, UniProt P02919). It is filed as cell-based, Escherichia coli MG1655.
For the next data set, the target named is PBP7 (Escherichia coli, UniProt P0AFI5). Type of data set: cell-based, Escherichia coli MG1655.
Data set [1] deals with T1, PBP4 (Escherichia coli, UniProt P24228). Type of data set: cell-based, Escherichia coli MG1655. As to conditions: for Bocillin-FL labeling of PBP4 at high inhibitor concentration: 10 mM inhibitor, all three biological replicates.
Another data set deals with PBP2 (Escherichia coli, UniProt P0AD65). It is filed as cell-based, Escherichia coli MG1655.
The test system of data set [2] is PBP4. As to conditions: read-out: reported IC50 values PBP4; literature range; cited from earlier work.
For data set [3], the target named is T1, PBP4. Nature of the data set: Meropenem titration against the PBPs in cell lysate. It is filed as binding. As to conditions: E. coli MG1655 lysate, in vitro (Figure S3).
In the next data set the target is PBP3 (Escherichia coli, UniProt P0AD68). Type of data set: cell-based, Escherichia coli MG1655.
In data set [4] the test system is E. coli MG1655. Briefly: Phase-contrast imaging of treated cells. Type of data set: cell-based. As to conditions: Figure S5.
The subject of another data set is PBP5/6. Type of data set: cell-based, Escherichia coli MG1655. As to conditions: 10 mM inhibitor, all three biological replicates.
The test system of data set [5] is E. coli MG1655. Briefly: Growth curve analysis of viability after permeabilization. As to conditions: 200 μM in Tris for 30 min, then LB broth 37 °C, A600 over 18 h.
[6] abbreviates: 10 mM inhibitor, all three biological replicates.

Where only a bound is given, the exact number is not on record here.

Take `CCN1CCN(C(=O)N[C@@H](C(=O)N[C@@H]2C(=O)N3[C@@H]2SC(C)(C)[C@@H]3C(=O)O)c2ccccc2)C(=O)C1=O` [piperacillin]: the IC50 at PBP1a was found to be 17 ± 15 µM; at PBP1b, 12 ± 7.4 µM; on PBP7 it was 2.3 ± 2.5 µM; at PBP4 [1], 25 ± 24 µM; on PBP2 it was 2.8 ± 2.8 µM.
In the case of `C[C@@H](O)[C@H]1C(=O)N2C(C(=O)O)=C(S[C@@H]3CN[C@H](C(=O)N(C)C)C3)[C@H](C)[C@H]12` [meropenem], the IC50 against PBP1a was > 10000 µM; at PBP1b, 110 ± 86 µM; at PBP4 [1], > 10000 µM; in the data set with PBP4 [2], 0.0001 to 0.01 µM; against PBP2 it was 0.01 µM. Also, the “PBP4 inhibition in lysate” value on PBP4 [3] is “no PBP4 inhibition”.
As for `NC(=O)[C@@H]1CC[C@@H]2CN1C(=O)N2OS(=O)(=O)O` [avibactam], the 50% inhibitory concentration (IC50) is > 10000 µM against PBP1a; 310 ± 460 µM on PBP1b; > 10000 µM on PBP4 [1]; > 10000 µM on PBP3; < 100 µM at PBP2.
With `O=C(O)CN(CCN(CC(=O)O)CC(=O)O)CC(=O)O` [Tris-EDTA, ethylenediaminetetraacetic acid], the “cell morphology by phase-contrast imaging” value in the data set with E. coli MG1655 [4] is given as “little difference in the morphologies”. In addition, the “fold increases in PBP labeling in comparison to Tris alone” value in the data set with PBPs (cotreatment with 25 μM Bocillin-FL in 50 mM Tris-200 μM EDTA, 30 min) is 1.2–5 fold. In the data set on PBPs (vs 7.5 μM Bocillin-FL in PBS, 10 min), the “fold increases in Bocillin-FL labeling in comparison to the original DC2 method” value is 2 to 61 fold.
Regarding `CC1(C)S[C@@H]2[C@H](NC(=O)Cc3ccccc3)C(=O)N2[C@H]1C(=O)O` [penicillin G], the 50% inhibitory concentration (IC50) against PBP1a worked out at 170 ± 93 µM; at PBP1b, 1.5 ± 0.7 µM; against PBP3, 15 ± 9 µM; at PBP2, 65 ± 36 µM.
Take `CO/N=C(\C(=O)N[C@@H]1C(=O)N2C(C(=O)[O-])=C(C[N+]3(C)CCCC3)CS[C@H]12)c1csc(N)n1` [cefepime]: the half-maximal inhibitory concentration (IC50) on PBP1a is 5.5 ± 2.6 µM; against PBP1b, 2.6 ± 2.4 µM; at PBP4 [1] it was > 10000 µM; on PBP3, < 0.0001 µM; on PBP2, 0.2 ± 0.1 µM. Besides, the “Bocillin-FL labeling of PBP5/6 at high inhibitor concentration” value in the data set with PBP5/6 is recorded as “increased Bocillin-FL labeling”. Further, the “Bocillin-FL labeling of PBP4 at high inhibitor concentration” value on PBP4 [1] is reported as “increased Bocillin-FL labeling”.
On to colistin, for which the lag in growth in the data set on E. coli MG1655 [5] is on record as ~ 10 h.
In the case of `CC1=C(C(=O)O)N2C(=O)[C@@H](NC(=O)[C@H](N)c3ccccc3)[C@H]2SC1` [cephalexin], the IC50 was > 10000 µM on PBP1a, > 10000 µM against PBP1b, 200 ± 250 µM against PBP7 and 68 ± 79 µM against PBP4 [1].
`CO/N=C(\C(=O)N[C@@H]1C(=O)N2C(C(=O)O)=C(COC(N)=O)CS[C@H]12)c1ccco1` [cefuroxime]: the IC50 on PBP1a worked out at 73 ± 42 µM; against PBP1b, 1.6 ± 1.9 µM; at PBP7 it was 25 ± 31 µM; against PBP4 [1], 24 ± 22 µM; against PBP3, 0.02 ± 0.01 µM; against PBP2, 91 ± 65 µM.
As to `N[C@@H](C(=O)N[C@@H]1C(=O)N2C(C(=O)O)=C(Cl)CS[C@H]12)c1ccccc1` [cefaclor], the IC50 on PBP1a was > 10000 µM; against PBP1b, > 10000 µM; on PBP7, 86 ± 66 µM; at PBP4 [1], > 10000 µM; at PBP3, 15 ± 14 µM; at PBP2, 360 ± 210 µM. The “Bocillin-FL labeling of PBP5/6 at high inhibitor concentration” value with PBP5/6 is given as “labeling was increased”.
In the case of `CO/N=C(\C(=O)N[C@@H]1C(=O)N2C(C(=O)O)=C(CSc3nc(=O)c(=O)[nH]n3C)CS[C@H]12)c1csc(N)n1` [ceftriaxone], the concentration for half-maximal inhibition (IC50) against PBP1a turned out to be 4.9 ± 2.2 µM; against PBP1b, 0.2 ± 0.2 µM; against PBP7, 9.5 ± 9.8 µM; against PBP4 [1], 3 ± 8 µM; at PBP2 it was 1.5 ± 0.9 µM.
As for `COc1cccc(OC)c1C(=O)N[C@@H]1C(=O)N2[C@@H]1SC(C)(C)[C@@H]2C(=O)O` [methicillin], the IC50 is > 10000 µM on PBP1a, 58 ± 70 µM at PBP7 and 87 ± 51 µM on PBP4 [1].
As to `C[C@H]1[C@H](NC(=O)/C(=N\OC(C)(C)C(=O)O)c2csc(N)n2)C(=O)N1S(=O)(=O)O` [aztreonam], the IC50 at PBP1a is 970 ± 940 µM; against PBP1b, 1.6 ± 0.9 µM; against PBP4 [1] it was > 10000 µM; on PBP2 it was > 10000 µM. In addition, at PBP7 (setting [6]), the “Bocillin-FL labeling of PBP7 at high inhibitor concentration” value is given as “increased Bocillin-FL labeling”. Moreover, the “Bocillin-FL labeling of PBP4 at high inhibitor concentration” value on PBP4 [1] is “increased Bocillin-FL labeling”. For the same molecule, on PBP2 (setting [6]), the “Bocillin-FL labeling of PBP2 at high inhibitor concentration” value is reported as “increased Bocillin-FL labeling”.
Regarding `C[C@@H](O)[C@H]1C(=O)N2C(C(=O)O)=C([C@H]3CCCO3)S[C@H]12` [faropenem], the half-inhibitory concentration (IC50) on PBP1a turned out to be 6.4 ± 3.6 µM; against PBP1b, 0.4 ± 0.2 µM; against PBP7, 1.2 ± 1.8 µM; against PBP4 [1], 2 ± 1.6 µM; at PBP2, 0.04 ± 0.04 µM.

What is called IC50 is the concentration needed to halve the response being measured.
